Experimental data from patent publication US4109011A, “Insecticide carbamates of N-(polychloroallyl)-amino-phenols” (priority 1975, dated 1978).
Where two headings read alike, the source gives them in different places.

Key:
Musca Domestica = assay: Biological activity on Musca domestica, topical application to adults; type: in vivo; conditions: 24 h, read-out: Percent of Mortality
Procedure: Biological Activity on Musca Domestica (Diptera)
Four day old adults were treated by topical application through a microsyringe with 1 mm^3 of an acetonic solution of the compounds shown in such concentrations that they received doses of 5γ/insect; 2γ/insect; 0.5γ/insect of active principle. The mortality percentage 24 hours after the treatment is reported in Table 8 (mortality of insects treated with 1 mm^3 of acetone = 0).

[1] = system: Leptinotarsa Decimlineata; assay: Biological activity on Leptinotarsa decemlineata larvae, sprayed potato seedlings; type: in vivo; conditions: read-out: Percent of Mortality
Culex Pipiens = assay: Biological activity on Culex pipiens (mosquito larvae in aqueous dispersion); type: in vivo; conditions: 24 h, read-out: Percent of Mortality
Description: Biological Activity on Culex Pipiens (Diptera)
Mosquito larvae of the third and fourth ages were introduced into glass pots containing an aqueous dispersion of the compounds shown at 2 ppm and 0.2 ppm.
(§1) To show the variation in activity from one compound to another, depending on the species used, the activities of compounds according to this invention were investigated at different concentrations, expressed as percent of active principle, on various infesting species. The mortality percentage was computed in the same way as in the preceding examples.

[2] = system: Leptinotarsa Decimlineata; assay: Biological activity on Leptinotarsa decemlineata larvae, sprayed potato seedlings; type: in vivo; conditions: read-out: Percent of Mortality; remark: listed apart in the source
Description: Biological Activity on Leptinotarsa Decimlineata Coleoptera
Potato seedlings cultivated in pots were infested with 4-day old larvae and sprayed with an aqueous dispersion of the compounds according to this invention and Aminocarb as a comparison at doses of […]; respectively. The mortality percentage of the control, untreated seedlings, was zero.
as §1

[3] = Acute toxicity on white rats, administered orally; conditions: rat, in vivo, po
Pieris Brassicae [4] = assay: Biological activity on Pieris brassicae larvae, sprayed cut cauliflower leaves; type: in vivo; conditions: 0.1 percent, larvae, read-out: Percent of Mortality
Description: Biological Activity on Pieris Brassicae (Lepidoptera)
Cut leaves of cauliflower were sprayed with an aqueous dispersion of compound according to this invention at a 0.1% concentration. After drying, they were infested with 5-day old larvae. The mortality percentage of the control, untreated leaves, was zero.
as §1

Spodoptera Littoralis [5] = assay: Biological activity on Spodoptera littoralis larvae, sprayed cut tobacco leaves; type: in vivo; conditions: 0.1 percent, larvae, 48 hours, read-out: Percent of Mortality
Description: Biological Activity on Spodoptera Littoralis (Lepidoptera)
Cut tobacco leaves were sprayed with a 0.1% aqueous dispersion of compounds according to the present invention, shown in Table 12. After drying, the leaves were infested with 5-day old lepidopter larvae. The mortality percentage of the control was zero.
as §1

Pieris Brassicae [6] = assay: Persistence of insecticidal activity in the field, Pieris brassicae on cauliflower plants; type: in vivo; conditions: 0.5 percent; for mortality at 0.5 %: read-out: Mortality Percent of Pieris Brassicae Larvae
Description: The persistence of insecticidal activity in the field using the insect Pieris brassicae was examined as follows:
Cauliflower plants grown under natural conditions in the field were sprinkled with an aqueous suspension of compounds according to this invention identified hereinabove as M 7361 and M 8157. For purposes of comparison, cauliflower plants were sprinkled with an aqueous suspension of a compound according to U.S. Pat. No. 3,819,678, identified hereinabove as M 7481.
After the respective time periods shown in Table 15, leaves of the sprinkled plants were picked and brought to the laboratory where they were infested with 10-day old larvae of Pieris brassicae and then kept under observation. The percent of mortality of the insects was determined 48 hours after infestation in all cases. The percent mortality of the control, unsprinkled cauliflower leaves, was zero.

Spodoptera Littoralis [7] = assay: Persistence of insecticidal activity in the field, Spodoptera littoralis on Ricinus plants; type: in vivo; conditions: one percent, read-out: Mortality Percent of Spodoptera Littoralis Larvae
Description: The persistence of insecticidal activity in the field using the insect Spodoptera littoralis was examined as follows:
Ricinus plants grown in the field under natural conditions were sprinkled with an aqueous suspension of the insecticidal compounds according to this invention designated hereinabove as M 7361 and M 8157. For purposes of comparison, an aqueous suspension of each of M 7481 and M 7488, according to U.S. Pat. No. 3,819,678 and identified above, was sprinkled on similarly grown Ricinus plants.
After the time periods shown in Table 16, leaves of the sprinkled plants were picked and brought to the laboratory where they were infested with 10-day old larvae of Spodoptera littoralis and then kept under observation. The mortality percent of the control unsprinkled leaves was zero.

[8] = system: Leptinotarsa decemlineata; assay: Persistence of insecticidal activity in the field, Leptinotarsa decemlineata on potato plants; type: in vivo; conditions: 0.2 percent
Description: The persistence of insecticidal activity in the field using the insect Leptinotarsa decemlineata was examined as follows:
Potato plants grown in the field under natural conditions were sprinkled with an aqueous suspension of compound M 7361 which is according to this invention and identified hereinabove. For purposes of comparison, similarly grown potato plants were sprinkled with an aqueous suspension of the compounds M 7488 and M 7481, respectively, both according to U.S. Pat. No. 3,819,678 and identified above.
After the time periods shown in Table 17, leaves of the sprinkled plants were picked and brought to the laboratory where they were infested with 10 day-old larvae of Leptinotarsa decemlineata and then kept under observation. After 48 hours, the percent of mortality of the insects was determined. The mortality percent of the control unsprinkled leaves was zero.

[9] = 120 h, 5 days after field treatment
[10] = 336 h, 14 days after field treatment
[11] = 264 h, 11 days after field treatment
[12] = 432 h, 18 days after field treatment
[13] = 600 h, 25 days after field treatment

CNC(=O)Oc1cc(C)c(N(C)C)c(C)c1 [Zectran, reference compound]
mortality at 0.5 µg/insect (Musca Domestica): 0% | mortality at 2 µg/insect (Musca Domestica): 60%

CNC(=O)Oc1ccc(C)c(NCC(Cl)=C(Cl)Cl)c1 [M 6738]
mortality at 0.01 % [1]: 100% | mortality at 2 µg/insect (Musca Domestica): 100% | mortality at 5 µg/insect (Musca Domestica): 100% | mortality at 2 ppm (Culex Pipiens): 100% | mortality at 0.1 % [2]: 100% | LD50 [3]: 100 mg/kg

CNC(=O)Oc1ccc(NCC=C(Cl)Cl)c(C)c1 [M 6432]
mortality at 0.1 % (Pieris Brassicae [4]): 100% | mortality at 0.1 % (Spodoptera Littoralis [5]): 100%

CNC(=O)Oc1cc(C)c(NCC(Cl)=C(Cl)Cl)c(C)c1 [M 8157]
period for which insecticidal activity is fully retained in the field (Pieris Brassicae [6]): at least 22 days | mortality at 0.5 % (Pieris Brassicae [6]; 2 hours after field treatment): 100% | mortality at 0.5 % (Pieris Brassicae [6]; [9]): 100% | mortality at 0.5 % (Pieris Brassicae [6]; 216 h, 9 days after field treatment): 100% | mortality at 0.5 % (Pieris Brassicae [6]; [10]): 100% | mortality at 0.5 % (Pieris Brassicae [6]; 408 h, 17 days after field treatment): 100% | mortality at 0.5 % (Pieris Brassicae [6]; 528 h, 22 days after field treatment): 100% | mortality at 1 % (Spodoptera Littoralis [7]; [9]): 100% | mortality at 1 % (Spodoptera Littoralis [7]; [11]): 100% | mortality at 1 % (Spodoptera Littoralis [7]; [10]): 100% | mortality at 1 % (Spodoptera Littoralis [7]; [12]): 100% | mortality at 1 % (Spodoptera Littoralis [7]; [13]): 100% | mortality at 1 % (Spodoptera Littoralis [7]; 2 hours after field treatment): 100%

CNC(=O)Oc1cc(C)c(N(CC=C(Cl)Cl)CC=C(Cl)Cl)c(C)c1 [M 7488, reference compound]
mortality at 1 % (Spodoptera Littoralis [7]; [9]): 92% | mortality at 1 % (Spodoptera Littoralis [7]; [11]): 47% | mortality at 1 % (Spodoptera Littoralis [7]; [10]): 38% | mortality at 1 % (Spodoptera Littoralis [7]; [12]): 22% | mortality at 1 % (Spodoptera Littoralis [7]; [13]): 0% | mortality at 1 % (Spodoptera Littoralis [7]; 2 hours after field treatment): 100% | mortality at 0.2 % ([8]; 2 hours after field treatment): 100% | mortality at 0.2 % ([8]; 96 h, 4 days after field treatment): 70% | mortality at 0.2 % ([8]; 168 h, 7 days after field treatment): 20% | mortality at 0.2 % [8, 11]: 10% | mortality at 0.2 % [8, 12]: 0% | mortality at 0.2 % [8, 13]: 0%
